This note sets out measurements from patent publication US10857230B2, “Co-therapy comprising a small molecule CSF-1R inhibitor and an agonistic antibody that specifically binds CD40 for the treatment of cancer” (Janssen Biotech, Inc., priority 2017, dated 2020).

The test system of the assay is CT26 murine colon carcinoma cells. The assay is described as follows: Mean Tumor Volume Assay, CT26 (Example 3). The class given is in vivo, BALB/c mice. The conditions noted are these: anti-mCD40 5 mpk, anti-CSF1R 10 mpk i.p. Days 1, 5, 9, 13. How it is done:
The assay was run using female BALB/c mice (BALB/c AnNcr1, Charles River).
CT26 murine colon carcinoma cells were grown in RPMI-1640 medium containing 10% fetal bovine serum, 2 mM glutamine, 100 units/mL penicillin G sodium, 100 μg/mL streptomycin sulfate, and 25 μg/mL gentamicin. The cells were cultured in tissue culture flasks in a humidified incubator at 37° C., in an atmosphere of 5% CO2 and 95% air.
The CT26 colon cells used for implantation were harvested during log phase growth and re-suspended in cold phosphate buffered saline (PBS).
Each mouse was injected subcutaneously in the right flank with 1×10^6 tumor cells (0.1 mL cell suspension) and tumors were monitored as their volumes approached the target range of 75 to 125 mm^3. Day 1 of the study, animals with individual tumor volumes ranging from 75 to 125 mm^3 were randomized into six different groups (n=12).
The compound of formula of formula (I), rat IgG2a (Clone 2A3) (5.55 mg/mL), anti-CSF1R (purchased from BioXCell anti-mouse CSF1R (CD115), Clone: AFS98, SKU: BE0213, Lot No. 5248/0814) and anti-mCD40 (purchased from BioXCell, anti-mouse CD40, Clone: FGK45, SKU: 13E0016-2-) were used as test compounds, alone or in combination. The compound of formula (I) was stored at room temperature and antibody stock solutions were stored at 4° C. upon receipt. The compound of formula (I) was dissolved in 0.5% HPMC to yield a 1.0 mg/mL dosing solution. The dosing solution was stored at 4° C., protected from light. The rat IgG2a isotype, anti-CD40 and anti-CSF1R dosing solutions were prepared once at the beginning of study by diluting aliquots of the stock solutions with PBS. The dosing solution was stored at 4° C., protected from light.
On Day 1 of the study, groups of BALB/c mice (n=12/group) began dosing according to the following protocol
The vehicle (0.5% HPMC) and compound of formula (I) were administered orally (p.o.). The rat IgG2a isotype control, anti-mCD40 and anti-CSF1R were administered intraperitoneally (i.p.). Rat IgG2a(2A3), the anti-CSF1R and compound of formula (I) were administered at 10 mg/kg. The anti-mCD40 was administered at 5 mg/kg. The dosing volume for all animals was 10 mL/kg (0.2 mL per 20-g mouse) and was adjusted for body weight.

On to `CC1(C)CC=C(c2nc(C3CC(C)(C)OC(C)(C)C3)ccc2NC(=O)c2nc(C#N)c[nH]2)CC1` [compound of formula (I), 4-cyano-N-(2-(4,4-dimethylcyclohex-1-en-1-yl)-6-(2,2,6,6-tetramethyltetrahydro-2H-pyran-4-yl)pyridin-3-yl)-1H-imidazole-2-carboxamide], for which the “Group Mean Tumor Volume, Day 6” value (Day 6, formula (I) 10 mpk b.i.d. × 14 days p.o.) is 107.69 mm^3. Further, where the note is “Day 6, relative to Group 1 control, formula (I) 10 mpk b.i.d. × 14 days p.o.”, the “% Tumor Growth Inhibition, Day 6” value is −0.86%. Also, the “Group Mean Tumor Volume, Day 8” value (Day 8, formula (I) 10 mpk b.i.d. × 14 days p.o.) worked out at 130.14 mm^3. Moreover, the “% Tumor Growth Inhibition, Day 8” value (Day 8, relative to Group 1 control, formula (I) 10 mpk b.i.d. × 14 days p.o.) is listed as −6.79%. Further, the “Group Mean Tumor Volume, Day 10” value (Day 10, formula (I) 10 mpk b.i.d. × 14 days p.o.) amounted to 196.09 mm^3. Where the note is “Day 10, relative to Group 1 control, formula (I) 10 mpk b.i.d. × 14 days p.o.”, the “% Tumor Growth Inhibition, Day 10” value is −24.44%. Also, the “Group Mean Tumor Volume, Day 13” value (Day 13, formula (I) 10 mpk b.i.d. × 14 days p.o.) is 268.17 mm^3. For the same compound, the “% Tumor Growth Inhibition, Day 13” value (Day 13, relative to Group 1 control, formula (I) 10 mpk b.i.d. × 14 days p.o.) was −1.27%. Moreover, the “Group Mean Tumor Volume, Day 15” value (Day 15, formula (I) 10 mpk b.i.d. × 14 days p.o.) amounted to 392.41 mm^3. For the same compound, the “% Tumor Growth Inhibition, Day 15” value (Day 15, relative to Group 1 control, formula (I) 10 mpk b.i.d. × 14 days p.o.) worked out at 5.39%. The “Group Mean Tumor Volume, Day 16” value (Day 16, formula (I) 10 mpk b.i.d. × 14 days p.o.) is 412.91 mm^3. Further, the “% Tumor Growth Inhibition, Day 16” value (Day 16, relative to Group 1 control, formula (I) 10 mpk b.i.d. × 14 days p.o.) is on record as −2.37%. Besides, where the note is “Day 20, formula (I) 10 mpk b.i.d. × 14 days p.o.”, the “Group Mean Tumor Volume, Day 20” value came to 739.49 mm^3. For the same compound, where the note is “Day 20, relative to Group 1 control, formula (I) 10 mpk b.i.d. × 14 days p.o.”, the “% Tumor Growth Inhibition, Day 20” value came to 16.42%.
